Each block holds one compound with its values, some of them ahead of it.
Assays:
cocaine-seeking behavior = details: cited from earlier work
ALDH2 = details: read-out: ALDH2 inhibition; cited from earlier work
human ALDH2 = molecular target: T1, human ALDH2 (Homo sapiens, UniProt P05091); experiment: ALDH enzymatic assay, ALDH2; assay type: biochemical
T1 sequence (P05091 18-517): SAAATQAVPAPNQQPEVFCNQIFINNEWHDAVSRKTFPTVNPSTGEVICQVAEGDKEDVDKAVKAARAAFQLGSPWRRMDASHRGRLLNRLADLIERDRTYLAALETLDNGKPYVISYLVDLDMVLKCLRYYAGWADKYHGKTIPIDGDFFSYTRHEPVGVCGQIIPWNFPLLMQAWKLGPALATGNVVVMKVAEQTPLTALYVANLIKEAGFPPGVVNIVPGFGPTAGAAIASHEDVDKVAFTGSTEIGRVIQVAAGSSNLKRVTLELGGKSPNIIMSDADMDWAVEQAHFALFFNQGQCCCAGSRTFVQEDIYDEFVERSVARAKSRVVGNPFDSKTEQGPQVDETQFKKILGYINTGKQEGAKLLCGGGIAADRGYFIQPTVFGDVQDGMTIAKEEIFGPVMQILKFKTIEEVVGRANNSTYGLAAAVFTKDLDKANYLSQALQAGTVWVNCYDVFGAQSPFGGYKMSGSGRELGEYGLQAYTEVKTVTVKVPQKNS

hALDH1A1 [1] = molecular target: T2, hALDH1A1 (Homo sapiens, UniProt P00352); experiment: Primary qHTS against hALDH1A1; assay type: biochemical
T2 sequence (P00352 1-501): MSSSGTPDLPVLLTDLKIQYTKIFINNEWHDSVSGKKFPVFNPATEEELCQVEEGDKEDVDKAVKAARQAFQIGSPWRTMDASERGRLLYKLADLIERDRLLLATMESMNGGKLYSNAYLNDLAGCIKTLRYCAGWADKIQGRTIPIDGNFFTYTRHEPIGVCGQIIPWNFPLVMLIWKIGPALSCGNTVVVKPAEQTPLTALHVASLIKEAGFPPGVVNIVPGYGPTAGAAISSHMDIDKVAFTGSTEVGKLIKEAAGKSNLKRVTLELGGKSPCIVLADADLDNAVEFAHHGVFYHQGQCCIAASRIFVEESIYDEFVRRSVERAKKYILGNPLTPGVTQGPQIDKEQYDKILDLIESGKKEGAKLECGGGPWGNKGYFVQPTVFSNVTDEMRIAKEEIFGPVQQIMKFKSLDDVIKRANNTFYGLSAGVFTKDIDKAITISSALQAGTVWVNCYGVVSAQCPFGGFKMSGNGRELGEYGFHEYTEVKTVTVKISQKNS

physchem = details: aqueous medium at pH 7.4, pH 7.4, aqueous buffer, kinetic from dmso stock
human ALDH1B1 = molecular target: T3, human ALDH1B1 (Homo sapiens, UniProt P30837); experiment: biochemical
T3 sequence (P30837 18-517): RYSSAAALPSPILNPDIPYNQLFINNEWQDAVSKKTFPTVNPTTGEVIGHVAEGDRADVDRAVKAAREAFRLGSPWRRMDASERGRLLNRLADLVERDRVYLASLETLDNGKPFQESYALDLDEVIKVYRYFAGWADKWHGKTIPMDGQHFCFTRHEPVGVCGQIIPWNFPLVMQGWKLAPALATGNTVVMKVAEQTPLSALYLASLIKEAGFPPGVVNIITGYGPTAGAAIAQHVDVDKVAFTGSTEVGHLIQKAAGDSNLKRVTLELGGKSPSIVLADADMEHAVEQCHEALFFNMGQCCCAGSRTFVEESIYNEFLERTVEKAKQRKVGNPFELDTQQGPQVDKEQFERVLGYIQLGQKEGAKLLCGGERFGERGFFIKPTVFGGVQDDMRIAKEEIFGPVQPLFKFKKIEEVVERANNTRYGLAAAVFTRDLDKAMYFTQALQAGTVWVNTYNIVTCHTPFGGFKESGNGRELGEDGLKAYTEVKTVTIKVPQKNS

hALDH1A1 [2] = molecular target: T2, hALDH1A1; experiment: biochemical
[3] = High-throughput RLM stability; assay type: in vitro ADME; details: rat, rat liver microsomes, pH 7.4
[4] = system: 168 GPCRs covering 60 receptor families; experiment: gpcrMAX panel profiling; assay type: cell-based; details: agonist and antagonist mode
Plasma protein binding = assay type: in vitro ADME
Caco-2 permeability = assay type: in vitro ADME; details: human
[5] = In vitro stability in CD1 mouse plasma; assay type: in vitro ADME
[6] = microsomes
[7] = CD1 mouse liver microsomal stability; assay type: in vitro ADME; details: mouse liver microsomes
[8] = system: more than 450 human kinases; experiment: DiscoveRx KINOMEscan off-target kinase profiling; assay type: binding; details: 10 µM, hit = inhibition of ≥55%
[9] = Pharmacokinetics in CD1 mice; assay type: in vivo; details: CD1, mouse
[10] = Multipoint rat liver microsomal stability; assay type: in vitro ADME

IC50 (hALDH1A1 [2]): 13700 ± 4900 nM
half-life at 1 µM [3]: 21 min
SMILES: Cc1cccc(Cn2c(OC3CCNCC3)nc3c2c(=O)n(C)c(=O)n3C)c1 [Compound 14, 1,3-dimethyl-7-(3-methylbenzyl)-8-(piperidin-4-yloxy)-1H-purine-2,6(3H,7H)-dione]

IC50 (hALDH1A1 [2]): 19200 ± 3300 nM
half-life at 1 µM [3]: 1 min
SMILES: Cc1cccc(Cn2c(OC3CCN(c4nccc(C)n4)CC3)nc3c2c(=O)n(C)c(=O)n3C)c1 [Compound 19, 1,3-dimethyl-7-(3-methylbenzyl)-8-((1-(4-methylpyrimidin-2-yl)-piperidin-4-yl)oxy)-1H-purine-2,6(3H,7H)-dione]

IC50 (hALDH1A1 [2]): 214 ± 28 nM
half-life at 1 µM [3]: > 30 min
SMILES: Cn1c(=O)c2c(nc(OC3CCN(C(=O)C4CC4)CC3)n2Cc2ccccc2)n(C)c1=O [Compound 21, 7-benzyl-8-((1-(cyclopropanecarbonyl)piperidin-4-yl)oxy)-1,3-dimethyl-1H-purine-2,6(3H,7H)-dione]

IC50 (human ALDH2): 15.3 µM
IC50 (human ALDH1B1): > 57 µM
IC50 (hALDH1A1 [2]): 84 ± 14 nM
half-life at 1 µM [3]: 4 min
SMILES: Cc1cccc(Cn2c(OC3CCN(C(=O)C4CC4)CC3)nc3c2c(=O)n(C)c(=O)n3C)c1 [Compound 34, 8-((1-(cyclopropanecarbonyl)piperidin-4-yl)oxy)-1,3-dimethyl-7-(3-methylbenzyl)-1H-purine-2,6(3H,7H)-dione]

IC50 (hALDH1A1 [2]): 629 ± 179 nM
half-life at 1 µM [3]: 14 min
SMILES: Cn1c(=O)c2c(nc(OC3CCN(C(=O)C4CC4)CC3)n2CCc2ccccc2)n(C)c1=O [Compound 39, 8-((1-(cyclopropanecarbonyl)piperidin-4-yl)oxy)-1,3-dimethyl-7-phenethyl-1H-purine-2,6(3H,7H)-dione]

IC50 (hALDH1A1 [2]): 30 ± 12 nM
half-life at 1 µM [3]: 1 min
SMILES: Cn1c(=O)c2c(nc(OC3CCN(C(=O)C4CC4)CC3)n2CCC2CCCCC2)n(C)c1=O [Compound 54, 7-(2-cyclohexylethyl)-8-((1-(cyclopropanecarbonyl)piperidin-4-yl)oxy)-1,3-dimethyl-1H-purine-2,6(3H,7H)-dione]

Further lines, the compound ahead of its results:

SMILES: CS(=O)(=O)Nc1ccc(-c2coc3cc(OCc4cccc(C(=O)O)c4)ccc3c2=O)cc1 [Compound 1]
reduction of cocaine-seeking behavior (cocaine-seeking behavior): demonstrated activity in the reduction of cocaine-seeking behavior
IC50 (ALDH2): 29 nM

SMILES: CCOC(=O)N1CCN(Cc2nc3c(c(=O)n(C)c(=O)n3C)n2Cc2cccc(C)c2)CC1 [Compound 5, ethyl 4-((1,3-dimethyl-7-(3-methylbenzyl)-2,6-dioxo-2,3,6,7-tetrahydro-1H-purin-8-yl)methyl)piperazine-1-carboxylate]
IC50 (human ALDH2): 2.4 µM
IC50 (hALDH1A1 [1]): 84 nM
solubility (physchem): > 62 µg/mL
IC50 (human ALDH1B1): > 57 µM
IC50 (hALDH1A1 [2]): 40 ± 5 nM
half-life at 1 µM [3]: 5 min

SMILES: CCOC(=O)N1CCN(c2nc3c(c(=O)n(C)c(=O)n3C)n2Cc2cccc(C)c2)CC1 [Compound 11, Ethyl 4-(1,3-Dimethyl-7-(3-methylbenzyl)-2,6-dioxo-2,3,6,7-tetrahydro-1H-purin-8-yl)piperazine-1-carboxylate]
IC50 (hALDH1A1 [2]): 570 ± 156 nM
half-life at 1 µM [3]: 2 min

SMILES: CNC(=O)c1ccc(Oc2nc3c(c(=O)n(C)c(=O)n3C)n2Cc2cccc(C)c2)cc1 [Compound 12, 4-((1,3-dimethyl-7-(3-methylbenzyl)-2,6-dioxo-2,3,6,7-tetrahydro-1H-purin-8-yl)oxy)-N-methylbenzamide]
IC50 (human ALDH2): 6.1 µM
solubility (physchem): < 1 µg/mL
IC50 (human ALDH1B1): > 57 µM
IC50 (hALDH1A1 [2]): 57 nM
half-life at 1 µM [3]: 8 min

SMILES: Cn1c(=O)c2[nH]c(OC3CCN(C(=O)C4CC4)CC3)nc2n(C)c1=O [Compound 22, 8-((1-(cyclopropanecarbonyl)piperidin-4-yl)oxy)-1,3-dimethyl-1H-purine-2,6(3H,7H)-dione]
IC50 (hALDH1A1 [2]): 25100 ± 5900 nM
half-life at 1 µM [3]: > 30 min

SMILES: CC(C)CCn1c(CN2CCN(C(=O)C3CC3)CC2)nc2c1c(=O)n(C)c(=O)n2C [Compound 64, 8-((4-(cyclopropanecarbonyl)piperazin-1-yl)methyl)-7-isopentyl-1,3-dimethyl-1H-purine-2,6(3H,7H)-dione]
gpcrMAX off-target activity [4]: very little activity in either agonist or antagonist mode
plasma protein binding (Plasma protein binding): 68.6 % bound
Papp A→B (Caco-2 permeability): 19.3 ×10⁻⁶ cm/s
Papp B→A (Caco-2 permeability): 19.6 ×10⁻⁶ cm/s
IC50 (human ALDH1B1): > 57 µM
in vitro stability in CD1 mouse plasma [5]: > 60 min
human liver microsomal stability (HLM) [6]: > 120 min
half-life [7]: 17 min
off-target kinase activity (KINOMEscan) [8]: no significant hits
AUC(0-t) ([9]; brain, po, 10 mg/kg): 261 ng·h/mL
Cmax ([9]; brain, po, 10 mg/kg): 1130 ng/mL
half-life ([9]; brain, po, 10 mg/kg): 24 min
AUC(0-t) ([9]; liver, po, 10 mg/kg): 1880 ng·h/mL
Cmax ([9]; liver, po, 10 mg/kg): 2690 ng/mL
half-life ([9]; liver, po, 10 mg/kg): 24 min
half-life ([9]; plasma, intravenous, oral, intraperitoneal): < 60 min
AUC(0-t) ([9]; plasma, ip, 30 mg/kg): 5670 ng·h/mL
Cmax ([9]; plasma, ip, 30 mg/kg): 8080 ng/mL
bioavailability ([9]; plasma, ip, 30 mg/kg): 100%
half-life ([9]; plasma, ip, 30 mg/kg): 42 min
AUC(0-t) ([9]; plasma, iv, 2 mg/kg): 332 ng·h/mL
C0 ([9]; plasma, iv, 2 mg/kg): 2070 ng/mL
Vd ([9]; plasma, iv, 2 mg/kg): 1.8 L/kg
clearance ([9]; plasma, iv, 2 mg/kg): 98 mL/min/kg
half-life ([9]; plasma, iv, 2 mg/kg): 30 min
AUC(0-t) ([9]; plasma, po, 10 mg/kg): 484 ng·h/mL
Cmax ([9]; plasma, po, 10 mg/kg): 696 ng/mL
bioavailability ([9]; plasma, po, 10 mg/kg): 29%
half-life ([9]; plasma, po, 10 mg/kg): 24 min
half-life at 1 µM [3]: > 30 min
multipoint rat liver microsomal stability [10]: 84 min

Reference: PMC5185321 (Journal of medicinal chemistry, 2015)
